Test results as given in paper PMC9923772 (ACS chemical neuroscience, 2020).
Where a name gives a salt, the structure may show the parent alone. Read-outs that look alike come from different tables or passages of the source.

Experiments:
[1] = biological target: T1, human DOR (Homo sapiens, UniProt P41143); test: biochemical; assay type: binding
[2] = biological target: T2, human KOR (Homo sapiens, UniProt P41145); assay type: binding
[3] = biological target: T3, human MOR (Homo sapiens, UniProt P35372); test: biochemical; assay type: binding
[4] = biological target: T3, human MOR; test: biochemical; details: for Emax: read-out: Efficacy (% Stimulation) MOR, Table 5; for Emax / Efficacy (% Stimulation) MOR: relative to DAMGO at 10 μM
[5] = biological target: T2, human KOR; test: [35S]-GTPγS binding assay, CHO-KOR membranes; assay type: biochemical; details: for Potency, EC50 KOR: [35S]GTPγS stimulation; for Potency, EC50 KOR / Efficacy KOR, percent maximal stimulation / Efficacy (% Stimulation) KOR: DNS = does not stimulate; for Efficacy KOR, percent maximal stimulation: Table 3; for Efficacy KOR, percent maximal stimulation / Efficacy (% Stimulation) KOR: relative to U69,593 at 10 μM
[6] = biological target: T1, human DOR; test: biochemical; details: for Potency EC50 DOR: [35S]GTPγS stimulation; for Potency EC50 DOR / Efficacy DOR, percent maximal stimulation / Efficacy (% Stimulation) DOR: DNS = does not stimulate; for Efficacy DOR, percent maximal stimulation: Table 3; for Efficacy DOR, percent maximal stimulation / Efficacy (% Stimulation) DOR: relative to DPDPE at 10 μM; for Emax: read-out: Efficacy DOR, percent maximal stimulation

Compound	Ki [2] [nM]	Ki [3] [nM]	EC50 [4] [nM]	Efficacy KOR, percent maximal stimulation [5]	Emax [6] [%]	Emax [4] [%]	Efficacy (% Stimulation) KOR ([5]; Table 5)	Efficacy (% Stimulation) DOR ([6]; Table 5)	other results
Cc1cc(O)cc(C)c1C[C@H](N)C(=O)NCc1cc(CN2CCc3ccccc3C2)ccc1OCC1CC1.O=C(O)C(F)(F)F [H, (S)-1-((2-(Cyclopropylmethoxy)-5-((3,4-dihydroisoquinolin-2(1H)-yl)methyl)benzyl)amino)-3-(4-hydroxy-2,6-dimethylphenyl)-1-oxopropan-2-aminium Trifluoroacetate]	23.5 ± 3.6	0.05 ± 0.01	1.6 ± 0.5	DNS	–	–	–	–	Ki [1]: 3.6 ± 0.9 nM; Potency, EC50 KOR ([5]; Table 2): DNS; Potency EC50 DOR ([6]; Table 2): DNS; Efficacy DOR, percent maximal stimulation [6]: DNS
Cc1cc(O)cc(C)c1C[C@H](N)C(=O)NCc1cc(CN2CCCCC2)ccc1OCC1CC1.O=C(O)C(F)(F)F [D, (S)-1-((2-(Cyclopropylmethoxy)-5-(piperidin-1-ylmethyl)benzyl)amino)-3-(4-hydroxy-2,6-dimethylphenyl)-1-oxopropan-2-aminium Trifluoroacetate]	–	–	–	DNS	17.7 ± 4.4	–	–	–	–
Cc1cc(O)cc(C)c1C[C@H](N)C(=O)N1CCC(CCN2CCc3ccccc3C2)CC1.O=C(O)C(F)(F)F [L, (S)-1-(4-(2-(3,4-Dihydroisoquinolin-2(1H)-yl)ethyl)piperidin-1-yl)-3-(4-hydroxy-2,6-dimethylphenyl)-1-oxopropan-2-aminium Trifluoroacetate]	21 ± 5.9	1.64 ± 0.62	68 ± 19	–	–	73 ± 12	DNS	DNS	Potency, EC50 KOR ([5]; Table 5): DNS
Cc1cc(O)cc(C)c1C[C@H](N)C(=O)NCCCCCN1CCc2ccccc2C1.O=C(O)C(F)(F)F [I, (S)-1-((5-(3,4-Dihydroisoquinolin-2(1H)-yl)pentyl)amino)-3-(4-hydroxy-2,6-dimethylphenyl)-1-oxopropan-2-aminium Trifluoroacetate]	44.2 ± 5.6	1.5 ± 0.3	15.4 ± 1.3	–	–	80.8 ± 4.5	DNS	DNS	Potency, EC50 KOR ([5]; Table 5): DNS
Cc1cc(O)cc(C)c1C[C@H](N)C(=O)NCc1cccc(CN2CCCCC2)c1.O=C(O)C(F)(F)F [A, (S)-3-(4-Hydroxy-2,6-dimethylphenyl)-1-oxo-1-((3-(piperidin-1-ylmethyl)benzyl)amino)propan-2-aminium Trifluoroacetate]	–	9.3 ± 1.3	> 740	DNS	–	–	–	–	Efficacy DOR, percent maximal stimulation [6]: DNS
Cc1cc(O)cc(C)c1C[C@H](N)C(=O)NCc1cccc(CN2CCc3ccccc3C2)c1.O=C(O)C(F)(F)F [E, (S)-1-((3-((3,4-Dihydroisoquinolin-2(1H)-yl)methyl)benzyl)amino)-3-(4-hydroxy-2,6-dimethylphenyl)-1-oxopropan-2-aminium Trifluoroacetate]	46.3 ± 9.7	0.23 ± 0.02	6.1 ± 3.1	DNS	57 ± 6	126 ± 20	DNS	57±6%	Potency, EC50 KOR ([5]; Table 2): DNS; Potency, EC50 KOR ([5]; Table 5): DNS
Cc1cc(O)cc(C)c1C[C@H](N)C(=O)NCC(=O)NCCN1CCc2ccccc2C1.O=C(O)C(F)(F)F [P, (S)-1-((2-((2-(3,4-Dihydroisoquinolin-2(1H)-yl)ethyl)amino)-2-oxoethyl)amino)-3-(4-hydroxy-2,6-dimethylphenyl)-1-oxopropan-2-aminium Trifluoroacetate]	–	–	–	–	–	86.6 ± 3.3	DNS	36.5±1.2%	–
Cc1cc(O)cc(C)c1C[C@H](N)C(=O)NCCN(C)CCN1CCc2ccccc2C1.O=C(O)C(F)(F)F [N, (S)-1-((2-((2-(3,4-Dihydroisoquinolin-2(1H)-yl)ethyl)(methyl)amino)ethyl)amino)-3-(4-hydroxy-2,6-dimethylphenyl)-1-oxopro-pan-2-aminium Trifluoroacetate]	–	–	–	–	–	–	43.0±2.5%	–	Ki ([1]; read-out: Binding Affinity, Ki DOR, Table 4, simple core compounds, mean ± SEM): 77 ± 45 nM; Ki ([2]; read-out: Binding Affinity, Ki KOR, Table 4, simple core compounds, mean ± SEM): 8.5 ± 1.1 nM; Ki ([3]; read-out: Binding Affinity, Ki MOR, Table 4, simple core compounds, mean ± SEM): 1.7 ± 0.39 nM; Efficacy (% Stimulation) MOR ([4]; Table 5): 80.0±9.5%; EC50 ([4]; read-out: Potency, EC50 MOR, Table 5, [35S]GTPγS stimulation): 24 ± 10 nM
CCCOc1ccc(CN2CCc3ccccc3C2)cc1CNC(=O)[C@@H](N)Cc1c(C)cc(O)cc1C.O=C(O)C(F)(F)F [G, (S)-1-((5-((3,4-Dihydroisoquinolin-2(1H)-yl)methyl)-2-propoxybenzyl)amino)-3-(4-hydroxy-2,6-dimethylphenyl)-1-oxopropan-2-aminium Trifluoroacetate]	–	0.22 ± 0.04	2.6 ± 1.3	DNS	–	–	–	–	Ki [1]: 1.4 ± 0.3 nM; Potency EC50 DOR ([6]; Table 2): DNS; Efficacy DOR, percent maximal stimulation [6]: DNS
Cc1cc(O)cc(C)c1C[C@H](N)C(=O)NCCOCC(=O)N1CCc2ccccc2C1.O=C(O)C(F)(F)F [K, (S)-1-((2-(2-(3,4-Dihydroisoquinolin-2(1H)-yl)-2-oxoethoxy)-ethyl)amino)-3-(4-hydroxy-2,6-dimethylphenyl)-1-oxopropan-2-aminium Trifluoroacetate]	–	–	–	–	–	–	DNS	DNS	–
CCCOc1ccc(CN2CCCCC2)cc1CNC(=O)[C@@H](N)Cc1c(C)cc(O)cc1C.O=C(O)C(F)(F)F [C, (S)-3-(4-Hydroxy-2,6-dimethylphenyl)-1-oxo-1-((5-(piperidin-1-ylmethyl)-2-propoxybenzyl)amino)propan-2-aminium Trifluoroacetate]	–	–	–	DNS	39.9 ± 6.5	–	–	–	–
Cc1cc(O)cc(C)c1C[C@H](N)C(=O)NCCOCCN1CCc2ccccc2C1.O=C(O)C(F)(F)F [J, (S)-1-((2-(2-(3,4-Dihydroisoquinolin-2(1H)-yl)ethoxy)ethyl)amino)-3-(4-hydroxy-2,6-dimethylphenyl)-1-oxopropan-2-aminium Trifluoroacetate]	–	–	–	–	–	90.7	22.0±3.8%	27.4±8.2%	Efficacy (% Stimulation) MOR ([4]; Table 5): 90.7±3.6%
COc1ccc(CN2CCCCC2)cc1CNC(=O)[C@@H](N)Cc1c(C)cc(O)cc1C.O=C(O)C(F)(F)F [B, (S)-3-(4-Hydroxy-2,6-dimethylphenyl)-1-((2-methoxy-5-(piperidin-1-ylmethyl)benzyl)amino)-1-oxopropan-2-aminium Trifluoroacetate]	23.5 ± 7.3	–	–	DNS	37.2 ± 6.2	–	–	–	Potency, EC50 KOR ([5]; Table 2): DNS
Cc1cc(O)cc(C)c1C[C@H](N)C(=O)NCC(=O)N(C)CCN1CCc2ccccc2C1.O=C(O)C(F)(F)F [O, (S)-1-((2-((2-(3,4-Dihydroisoquinolin-2(1H)-yl)ethyl)(methyl)amino)-2-oxoethyl)amino)-3-(4-hydroxy-2,6-dimethylphenyl)-1-oxopropan-2-aminium Trifluoroacetate]	–	–	–	–	–	53 ± 17	DNS	DNS	–
Cc1cc(O)cc(C)c1C[C@H](N)C(=O)N1CCN(CCN2CCc3ccccc3C2)CC1.O=C(O)C(F)(F)F [M, (S)-1-(4-(2-(3,4-Dihydroisoquinolin-2(1H)-yl)ethyl)piperazin-1-yl)-3-(4-hydroxy-2,6-dimethylphenyl)-1-oxopropan-2-aminium Trifluoroacetate]	–	3.59 ± 0.4	56 ± 17	–	–	70 ± 16	DNS	DNS	Ki [1]: 16.6 ± 4.9 nM; Potency EC50 DOR ([6]; Table 5): DNS
COc1ccc(CN2CCc3ccccc3C2)cc1CNC(=O)[C@@H](N)Cc1c(C)cc(O)cc1C [F, (S)-1-((5-((3,4-Dihydroisoquinolin-2(1H)-yl)methyl)-2-methoxybenzyl)amino)-3-(4-hydroxy-2,6-dimethylphenyl)-1-oxopropan-2-aminium Trifluoroacetate]	28.4 ± 3.1	0.16 ± 0.05	2.9 ± 0.5	–	29.8 ± 3.5	–	–	–	Ki [1]: 3 ± 0.8 nM; EC50 [5]: > 1000 nM; Emax ([5]; read-out: Efficacy KOR, percent maximal stimulation): > 15%; EC50 [6]: 5 ± 0.9 nM
